Assay results: article PMC5855545, “Role of Disulfide Bonds in Activity and Stability of Tigerinin-1R” (International Journal of Molecular Sciences, 2018)
Entries after “also recorded” stand apart in the source; their conditions may differ. One block for each compound: values may come before it.

How the values were obtained:
[1] = tested on: INS-1 cells; experiment: Protection against palmitic acid-induced apoptosis (MTT viability); format: cell-based, rat; conditions: 0.5 mM PA, 24 h
Experimental: Solutions of free fatty acids (FFAs) were prepared. Briefly, 100 mM palmitic acid (PA) stocks (Sigma, St. Louis, MO, USA) were prepared in 0.1 M NaOH at 70 °C. Ten percent (w/v) FFA-free BSA (Roche, Mannheim, Germany) solution was prepared in PBS buffer. A 5 mM FFA/10% BSA solution was prepared by mixing 50 μL FFA to 950 μL 10% BSA in a 60 °C water bath. The above solution was then cooled to room temperature, diluted in RPMI 1640 to 0.5 mM and filtered. Cells were added into 96-well plates (5 × 10^3 cells/well). Complete medium was withdrawn after overnight incubation at 37 °C. One hundred microliters of different peptides corresponding to a serial dilution series (concentrations 10^−9, 10^−7, 10^−5 M) diluted with medium containing 0.5 mM PA, was added for another 24 h. Meanwhile, incubation in fresh medium, with or without PA, were set as positive and negative controls, respectively. At the end of incubation, 20 μL of MTT solution (5 mg/mL in PBS) was added to each well and further incubated at 37 °C for 4 h. Cell viability was determined by dissolving the crystallized MTT with dimethyl sulfoxide (150 μL/well).

[2] = tested on: INS-1 cells; experiment: Insulin-releasing activity in vitro (rat insulin ELISA); format: cell-based; conditions: 2.8 mM glucose; for insulin release at 10^−5 M compared with tigerinin-1R: 10^−5 M peptide, 1 h in KRB buffer at 37 °C, triplicate
Experimental: INS-1 cells were harvested with trypsin/EDTA, seeded into 6-well plates (3–5 × 10^5 cells/well), and allowed to attach overnight. Prior to the test, cells were preincubated in 1 mL Krebs-Ringer bicarbonate (KRB) buffer without glucose (115 mMNaCl, 4.7 mMKCl, 1.28 mM CaCl2,1.2 mM KH2PO4, 1.2 mM MgSO4, 10 mM NaHCO3, and 1 g/L BSA, pH 7.4) at 37 °C for 45 min. Cells were then incubated in the absence or presence of peptides for 1 h, using the same buffer with 2.8 mM glucose. The insulin supernatants were collected, and subsequently analyzed using ultrasensitive rat insulin ELISA kits (Mercodia, Sweden). The assay was repeated in triplicate.

[3] = Reversed-phase HPLC retention time (relative hydrophobicity); format: physicochemical; conditions: RP-HPLC at 25 °C; Zorbax 300 SB-C8 150 × 4.6 mm, linear AB gradient 1% acetonitrile/min, 1 mL/min, A 0.1% aqueous TFA pH 2, B 0.1% TFA in acetonitrile
[4] = Peptide degradation assay in 10% fetal bovine serum; format: in vitro ADME; conditions: 200 μM peptide in PBS, 37 °C
Experimental: Peptides dissolved in PBS to a final concentration of 200 μM were incubated with 10% fetal bovine serum at 37 °C. At different time points (0, 60, and 120 min), 20 μL peptide samples were taken and diluted with an equal volume of 0.1% aqueous trifluoroacetic acid (TFA). The samples were then analyzed by RP-HPLC. The experiment was performed on a Shimadzu HPLC system with a Zorbax 300 SB-C8 column (150 × 4.6 mm I.D.; 5 µm particle size, 300 Å pore size; Agilent Technologies, Palo Alto, CA, USA) using a linear AB gradient (1% acetonitrile/min) and a flow rate of 1 mL/min, where solvent A was 0.1% aqueous TFA, pH 2, and solvent B was 0.1% TFA in acetonitrile at 25 °C.

[5] = tested on: INS-1 cells; experiment: Measurement of intracellular Ca2+ (Fluo-3 AM, confocal microscopy); format: cell-based, rat; conditions: 10^−5 M peptide, 2.8 mM glucose; less than 30 mM KCl, significantly greater than glucose alone
Experimental: INS-1 cells (2 × 10^5) were cultured in glass bottom dishes (NEST, Wuxi, China). Following overnight culture, the cells were washed with KRB buffer three times, and then incubated with 5 μM fluorescent Ca^2+ probe Fluo-3 AM solution (Solarbio, Beijng, China). After loading for 30 min and washing three times with KRB buffer, cells were incubated for 15 min in the absence of Fluo-3 AM. KRB buffer supplemented with 2.8 mM glucose containing 10^−5 M peptide was then added. Images of cells were obtained by laser scanning confocal microscope (LSM710, Carl Zeiss, Oberkochen, Germany). The fluorescence was excited at 480 nm at 4 s intervals, and detected at 515 nm. Incubations in the presence of 2.8 mM glucose alone (negative control) or extra 30 mM KCl (positive control) were also carried out individually.

[6] = tested on: Kunming male mice; experiment: Glucose tolerance in vivo in overnight-fasted mice; set-up: species or system mouse; conditions: n = 6
Experimental: Kunming male mice were housed individually in an air-conditioned room (22 ± 2 °C) with a 12 h light/12 h dark cycle, and were handled in accordance with the Guide for Care and Use of Laboratory Animals in China and approved by the animal ethics committee of Jilin University (Approval No. JLUSWLL003, Jilin, China; dated on 10 May 2017). Drinking water and standard laboratory chow were freely available. No adverse effects were observed following administration of the peptides. Age-matched groups (n = 6) of overnight-fasted mice received an intraperitoneal injection of either glucose (18 mmol/kg body weight), tigerinin-1R (75 nmol/kg body weight), or [C11K]tigerinin-1R (75 nmol/kg body weight) individually as control groups, and glucose in combination with tigerinin-1R or glucose in combination with [C11K]tigerinin-1R as experimental groups, respectively. All solutions were administered in 0.9% NaCl (5 mL/kg body weight). Blood samples were collected from the cut tip of the tail vein of conscious mice, before injection and at 15, 30, 60, and 120 min immediately after injection, and glucose was measured using a Sannuo stable blood glucose meter (Changsha, China) using corresponding test strips.

[7] = tested on: high-fat fed mice; conditions: administration to high-fat fed mice; cited from earlier work
Text: (§1) Tigerinin-1R (Arg–Val–Cys–Ser–Ala–Ile–Pro–Leu–Pro–Ile–Cys–His–NH2) is a cationic peptide containing a disulfide bond that is isolated from the skin secretions of Hoplobatrachus ugulosus. […] In vivo studies have shown that administration of tigerinin-1R or some of its analog ...

[8] = tested on: bacteria; conditions: cited from earlier work
Text: as §1

Compound: CCCCCCCCCCCCCCCC(=O)O [PA, palmitic acid]
- viability of INS-1 cells with PA (positive control) [1]: 58.24%

- tR (min), retention time during reversed-phase HPLC (relative hydrophobicity) [3]: 11.590 min
Compound: Ac-RVASAIPLPIAH-NH2 [tigerinin-linear]
- insulin release at 10^−5 M compared with tigerinin-1R [2]: lower insulin-releasing activity than tigerinin-1R

- stability: RP-HPLC peak area of intact peptide after 60 min ([4]; 60 min): decreased dramatically
- stability: RP-HPLC peak area of intact peptide at/within 120 min [4]: almost disappeared
Compound: Ac-RVCSAIPLPIKH-NH2 [[C11K]tigerinin-1R]

Compound: CSAIPLPIC-amide (C–C) (disulfide) [tigerinin-cyclic, tigerinin-1R analog retaining only the cyclic moiety]
- insulin release at 10^−5 M compared with tigerinin-1R [2]: decrease in insulin-releasing ability

Compound: RVCSAIPLPICH-amide (C–C) (disulfide) [tigerinin-1R, Arg–Val–Cys–Ser–Ala–Ile–Pro–Leu–Pro–Ile–Cys–His–NH2, cationic 12-mer peptide containing a disulfide bond, from frog skin secretions; parent peptide, synthesized here]
- concentration of intracellular Ca2+ (Fluo-3 fluorescence) [5]: produced an increase in the concentration of intracellular Ca^2+
- plasma glucose concentrations after peptide alone ([6]; 75 nmol/kg peptide i.p. alone, without glucose injection): little change in plasma glucose concentrations
- glucose tolerance / hypoglycemic ability (plasma glucose) ([6]; 75 nmol/kg peptide i.p. with glucose 18 mmol/kg, 15-120 min): improved glucose tolerance; also recorded: higher hypoglycemic ability than [C11K]tigerinin-1R
- stability: RP-HPLC peak area of intact peptide at/within 120 min [4]: changed very little
- insulin secretion of INS-1 cells at different peptide concentrations ([2]; 10^−8 to 10^−5 M, 1 h in KRB buffer pH 7.4 at 37 °C, compared to 2.8 mM glucose alone, n = 3): concentration-dependent manner
- tR (min), retention time during reversed-phase HPLC (relative hydrophobicity) [3]: 19.465 min
- insulin release and glucose tolerance in high-fat fed mice [7]: significantly enhanced insulin release and improved glucose tolerance
- antibacterial activity [8]: lacks antibacterial activity
